For data set [1], the target named is human MCH-1 receptor (Homo sapiens (Human), UniProt Q99705). The experiment in a line: Binding assay for human melanin-concentrating hormone (MCH1) receptor. Conditions: membranes from CHO-K1 cells expressing human MCH1 receptor, 1.4 nM [3H]-labeled radioligand, 60 min at 25° C., pH 7.4, Ki from Cheng Prusoff equation. As to the method: Binding Assay for Human Melanin-Concentrating Hormone (MCH1) Receptor
Evaluation of the affinity of compounds for the human MCH-1 receptor was accomplished using 4-(3,4,5-tritritiumbenzyloxy)-1-(1-(2-(pyrrolidin-1-yl)ethyl)-1H-indazol-5-yl)pyridin-2(1H)-one and membranes prepared from stable CHO-K1 cells expressing the human MCH1 receptor obtained from Euroscreen (Batch 1138). Cell membrane homogenates (8.92 μg protein) were incubated for 60 min at 25° C. with 1.4 nM of the [^3H]-labeled compound in the absence or presence of the test compound in 50 mM Tris-HCl buffer, pH 7.4. Nonspecific binding was determined in the presence of 50 μM 1-(5-(4-cyanophenyl)bicyclo[3.1.0]hexan-2-yl)-3-(4-fluoro-3-(trifluoromethyl)phenyl)-1-(3-(4-methylpiperazin-1-yl)propyl)urea. Following incubation, the samples were filtered rapidly under vacuum through Skatron 11731 filters, pre-soaked in 0.5% polyethylenimine, and washed with ice-cold 50 mM Tris-HCl buffer, pH 7.4, (wash setting 9,9,0) using a Skatron cell harvester. The filters were counted for radioactivity in a liquid scintillation counter (Tri-Carb 2100TR, Packard) using a scintillation cocktail (Ultima Gold MV, Perkin Elmer).
The results are expressed as a percent inhibition of the control radioligand specific binding. The IC50 value (concentration causing a half-maximal inhibition of control specific binding) and Hill coefficient (nH) were determined by non-linear regression analysis of the competition curve using Hill equation curve fitting. The inhibition constant (Ki) was calculated from the Cheng Prusoff equation: (Ki=IC50/(1+(L/KD)), where L=concentration of radioligand in the assay, and KD=affinity of the radioligand for the receptor.

pKi: −log10 of the molar value.

A word on the pKi: it is −log10 of the Ki, conventionally taken in molar units. Broadly, the melting point is the temperature of the solid-liquid transition.

Sequence of human MCH-1 receptor (Q99705 whole entry): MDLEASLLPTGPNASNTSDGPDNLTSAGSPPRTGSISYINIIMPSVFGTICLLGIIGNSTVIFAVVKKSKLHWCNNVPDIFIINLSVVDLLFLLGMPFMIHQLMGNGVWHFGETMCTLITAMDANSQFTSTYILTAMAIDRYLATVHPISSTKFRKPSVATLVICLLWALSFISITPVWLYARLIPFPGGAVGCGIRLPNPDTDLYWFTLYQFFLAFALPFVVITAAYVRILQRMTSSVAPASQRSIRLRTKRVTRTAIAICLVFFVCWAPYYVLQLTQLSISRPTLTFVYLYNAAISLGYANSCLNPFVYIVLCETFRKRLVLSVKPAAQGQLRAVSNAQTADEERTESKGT

Consider `Cl.O=c1cc(OCc2ccc(F)cc2F)ccn1-c1ccc2c3c([nH]c2c1)CCN1CCCC31` (stereo not drawn) [Example 28, 4-(2,4-difluorobenzyloxy)-1-(2,3,5,6,7,11c-hexahydro-1H-indolizino[7,8-b]indol-9-yl)pyridin-2(1H)-one Hydrochloride], for which the melting point was in the range of 210 to 220 °C. In data set [1], this molecule showed a pKi of 7.92.

In turn, `Cl.O=c1cc(-c2ccc(C(F)(F)F)cc2)ccn1-c1ccc2c3c([nH]c2c1)CC1CCCN1C3` (stereo not drawn) [Example 39, 1-(2,3,5,10,11,11a-Hexahydro-1H-indolizino[7,6-b]indol-8-yl)-4-(4-(trifluoromethyl)phenyl)pyridin-2(1H)-one Hydrochloride] had a melting point of 275 to 285 °C. The pKi in data set [1] is 8.07.

For `Cl.Cn1c2c(c3ccc(-n4ccc(-c5ccc(C(F)(F)F)cc5)cc4=O)nc31)C1CCCN1CC2` (stereo not drawn) [Example 49, 1-(7-Methyl-2,3,5,6,7,11c-hexahydro-1H-pyrido[3′,2′:4,5]pyrrolo[2,3-g]indolizin-9-yl)-4-(4-(trifluoromethyl)phenyl)pyridin-2(1H)-one Hydrochloride], the melting point lay within 190 to 200 °C. This molecule had a pKi in data set [1] of 7.82.

`Cl.Cn1c2c(c3ccc(-n4ccc(OCc5ccc(F)cn5)cc4=O)nc31)CN1CCCC1C2` (stereo not drawn) [Example 51, 4-((5-Fluoropyridin-2-yl)methoxy)-1-(11-methyl-5,7,8,9,9a,10-hexahydro-11H-pyrido[3′,2′:4,5]pyrrolo[3,2-f]indolizin-2-yl)pyridin-2(1H)-one Hydrochloride] had a melting point of 220 to 230 °C. In addition, in data set [1], the pKi was 7.43.

For the molecule `Cl.Cn1c2c(c3ccc(-n4ccc(OCc5ccc(Cl)cn5)cc4=O)cc31)CCN1CCCCC21` (stereo not drawn) [Example 8, 4-((5-Chloropyridin-2-yl)methoxy)-1-(12-methyl-1,2,3,4,6,7,12,12b-octahydroindolo[2,3-a]quinolizin-10-yl)pyridin-2(1H)-one Hydrochloride], the melting point fell in the range of 204 to 208 °C. The same molecule showed a pKi in data set [1] of 7.70.

The molecule `Cl.Cn1c2c(c3ccc(-n4ccc(OCc5ccccc5)cc4=O)nc31)C1CCCN1CC2` (stereo not drawn) [Example 44, 4-(Benzyloxy)-1-(7-methyl-2,3,5,6,7,11c-hexahydro-1H-pyrido[3′,2′:4,5]pyrrolo[2,3-g]indolizin-9-yl)pyridin-2(1H)-one Hydrochloride] had a melting point of 130 to 140 °C. Besides, in data set [1], the pKi is 7.92.

As to `Cl.Cn1c2c(c3ccc(-n4ccc(OCc5ccc(F)cn5)cc4=O)cc31)CN1CCCCC1C2` (single isomer, unassigned; (-)) [Example 38, (−)-4-((5-Fluoropyridin-2-yl)methoxy)-1-(5-methyl-5,6,6a,7,8,9,10,12-octahydroindolo[2,3-b]quinolizin-3-yl)pyridin-2(1H)-one Hydrochloride], the melting point lay in the range of 270 to 280 °C. Besides, the negative-log Ki (pKi) in data set [1] (Hydrochloride) was 7.72.

As to `Cl.Cn1c2c(c3ccc(-n4ccc(OCc5ccc(F)cn5)cc4=O)cc31)CCN1CCCCC21` (stereo not drawn) [Example 7, 4-((5-Fluoropyridin-2-yl)methoxy)-1-(12-methyl-1,2,3,4,6,7,12,12b-octahydroindolo[2,3-a]quinolizin-10-yl)pyridin-2(1H)-one Hydrochloride], the melting point was 200 °C (dec.). In data set [1], this molecule gave a pKi of 7.35.

On to `Cl.Cn1c2c(c3ccc(-n4ccc(-c5ccc(C(F)(F)F)nc5)cc4=O)cc31)C1CCCN1CC2` (stereo not drawn) [Example 14, 1-(7-Methyl-2,3,5,6,7,11c-hexahydro-1H-indolizino[7,8-b]indol-9-yl)-4-(6-(trifluoromethyl)pyridin-3-yl)pyridin-2(1H)-one Hydrochloride], for which the melting point was in the range of 235 to 240 °C. In data set [1], this molecule gave a pKi of 6.82.

Regarding `Cl.Cn1c2c(c3ccc(-n4ccc(OCc5ncc(F)cc5F)cc4=O)nc31)CN1CCCC1C2` (stereo not drawn) [Example 56, 4-((3,5-Difluoropyridin-2-yl)methoxy)-1-(11-methyl-5,7,8,9,9a,10-hexahydro-11H-pyrido[3′,2′:4,5]pyrrolo[3,2-f]indolizin-2-yl)pyridin-2(1H)-one Hydrochloride], the melting point lay in the range of 220 to 230 °C. For the same molecule, in data set [1], the pKi is 6.92.

`Cl.O=c1cc(-c2ccc(C(F)(F)F)cc2)ccn1-c1ccc2c3c([nH]c2c1)CCN1CCCC31` (stereo not drawn) [Example 26, 1-(2,3,5,6,7,11c-Hexahydro-1H-indolizino[7,8-b]indol-9-yl)-4-(4-(trifluoromethyl)phenyl)pyridin-2(1H)-one Hydrochloride] came in with a melting point of 280 to 290 °C. This molecule also gave a pKi in data set [1] of 7.92.

Molecule `Cl.Cn1c2c(c3ccc(-n4ccc(OCc5ccccc5)cc4=O)cc31)CN1CCCC1C2` (stereo not drawn) [Example 11, 4-(Benzyloxy)-1-(10-methyl-2,3,5,10,11,11a-hexahydro-1H-indolizino[7,6-b]indol-8-yl)pyridin-2(1H)-one Hydrochloride] showed a melting point of 255 to 258 °C. For the same molecule, in data set [1], the pKi is 8.09.

Take `Cl.Cn1c2c(c3ccc(-n4ccc(OCc5ccc(F)cc5F)cc4=O)nc31)CN1CCCC1C2` (stereo not drawn) [Example 55, 4-(2,4-Difluorobenzyloxy)-1-(11-methyl-5,7,8,9,9a,10-hexahydro-11H-pyrido[3′,2′:4,5]pyrrolo[3,2-f]indolizin-2-yl)pyridin-2(1H)-one Hydrochloride]: the melting point lay in the range of 140 to 150 °C. Further, in data set [1], the pKi was 7.51.

On to `Cl.Cn1c2c(c3ccc(-n4ccc(-c5ccc(Cl)cn5)cc4=O)cc31)CCN1CCCCC21` (stereo not drawn) [Example 9, 4-(5-Chloropyridin-2-yl)-1-(12-methyl-1,2,3,4,6,7,12,12b-octahydroindolo[2,3-a]quinolizin-10-yl)pyridin-2(1H)-one Hydrochloride], for which the melting point fell in the range of 210 to 213 °C. The pKi in data set [1] was 5.76.

Consider `Cl.Cn1c2c(c3ccc(-n4ccc(OCc5ccccc5)cc4=O)cc31)C1CCCCN1CC2` (stereo not drawn) [Example 22, 4-(Benzyloxy)-1-(8-methyl-1,2,3,4,6,7,8,12c-octahydroindolo[3,2-a]quinolizin-10-yl)pyridin-2(1H)-one Hydrochloride], for which the melting point lay within 250 to 253 °C. For the same molecule, in data set [1], the pKi is 7.68.

With `Cl.O=c1cc(-c2ccc(C(F)(F)F)nc2)ccn1-c1ccc2c3c([nH]c2c1)CCN1CCCC31` (stereo not drawn) [Example 27, 1-(2,3,5,6,7,11c-Hexahydro-1H-indolizino[7,8-b]indol-9-yl)-4-(6-(trifluoromethyl)pyridin-3-yl)pyridin-2(1H)-one Hydrochloride], the melting point fell in the range of 205 to 215 °C. In data set [1], the pKi is 7.47.

As for `Cl.Cn1c2c(c3ccc(-n4ccc(-c5ccc(C(F)(F)F)nc5)cc4=O)nc31)C1CCCN1CC2` (stereo not drawn) [Example 48, 1-(7-Methyl-2,3,5,6,7,11c-hexahydro-1H-pyrido[3′,2′:4,5]pyrrolo[2,3-g]indolizin-9-yl)-4-(6-(trifluoromethyl)pyridin-3-yl)pyridin-2(1H)-one Hydrochloride], the melting point is 290 to 300 °C. In addition, in data set [1], the pKi was 7.33.

Consider `Cl.Cn1c2c(c3ccc(-n4ccc(OCc5ccccc5)cc4=O)nc31)CN1CCCC1C2` (stereo not drawn) [Example 50, 4-(Benzyloxy)-1-(11-methyl-5,7,8,9,9a,10-hexahydro-11H-pyrido[3′,2′:4,5]pyrrolo[3,2-f]indolizin-2-yl)pyridin-2(1H)-one Hydrochloride], for which the melting point is 240 to 250 °C. This molecule also gave a pKi in data set [1] of 7.80.

`Cl.Cn1c2c(c3ccc(-n4ccc(OCc5ccc(F)cc5F)cc4=O)nc31)C1CCCN1CC2` (stereo not drawn) [Example 46, 4-(2,4-Difluorobenzyloxy)-1-(7-methyl-2,3,5,6,7,11c-hexahydro-1H-pyrido[3′,2′:4,5]pyrrolo[2,3-g]indolizin-9-yl)pyridin-2(1H)-one Hydrochloride] registered a melting point of 134 to 145 °C. Besides, the negative logarithm of the Ki (pKi) in data set [1] is 7.80.

`Cl.Cn1c2c(c3ccc(-n4ccc(OCc5ccc(C(F)(F)F)nc5)cc4=O)cc31)C1CCCN1CC2` (stereo not drawn) [Example 18, 1-(7-Methyl-2,3,5,6,7,11c-hexahydro-1H-indolizino[7,8-b]indol-9-yl)-4-((6-(trifluoromethyl)pyridin-3-yl)methoxy)pyridin-2(1H)-one Hydrochloride]: the melting point lay in the range of 250 to 254 °C. The pKi in data set [1] is 7.92.

As to `Cl.Cn1c2c(c3ccc(-n4ccc(-c5ccc(C(F)(F)F)nc5)cc4=O)cc31)CN1CCCCC1C2` (stereo not drawn) [Example 36, 1-(5-Methyl-5,6,6a,7,8,9,10,12-octahydroindolo[2,3-b]quinolizin-3-yl)-4-(6-(trifluoromethyl)pyridin-3-yl)pyridin-2(1H)-one Hydrochloride], the melting point was 245 to 248 °C. In data set [1], this molecule had a pKi of 8.15.

The values are drawn from patent publication US8618299B2, “Azinone-substituted azapolycycle MCH-1 antagonists, methods of making, and use thereof” (Albany Molecular Research, Inc., priority 2009, dated 2013).
